According to US10736326B2, “Nematode dispersant composition and method” (PHERONYM, INC., priority 2016, dated 2020):
Entries after “also recorded” stand apart in the source; their conditions may differ.

Tested on: S. feltiae infective juveniles (IJ)
Test: Dispersal assay with S. feltiae infective juveniles on agar plates
Type: in vivo, Steinernema feltiae
Conditions: S. feltiae IJs; for dispersal activity in combination with fractions B and C: ascr#11 1.3 pmol/μl, FIG. 1C, 1D; for dispersal activity by itself: physiologically relevant concentration (ascr#9 40.3 pmol/μl, ascr#11 1.3 pmol/μl), FIG. 1B
Procedure: The dispersal assay for the activity guided purification in FIG. 1 used S. feltiae IJs that were washed with MILLI-Q water three times and incubated in 6 cm petri dishes for 36 h with a small amount (4-5 ml) of MILLI-Q water. The following day, nematodes were placed on a 10.7 g/L agar with gel strength 1010 g/cm^2 (PhytoTechnology Lab. Shawnee Mission, Kans.). Nematode behavior was assayed on multiple plates with internal plate replicates to rule out the possibility that behavior was affected by plate composition. Approximately 300 IJs in 10 μl water were placed on an agar medium and the test compounds or extracts were placed into 1-2 μl to the nematode suspension. Upon absorption (15-20 min) of the liquid, the freely moving nematodes were video-recorded for 5-10 min. Dispersal behavior is temperature and season dependent. During winter, the assay is effective at RT (22±1° C.). During summer, the assay requires a temperature-controlled environment due to effects on nematode behavior above 23° C.
Activity guided fractionation was conducted as described by Srinivasan et al 2008 with modifications. A total of 33 insect host cadavers (G. mellonella larvae) were placed into 70% EtOH and stored at −20° C. until extraction. The insect cadavers were homogenized using 1 g of ceramic zirconium beads (1.25 mm) (ZIRMIL) in 2 ml tubes for 37 sec using a Precellys24 (http://www.precellys.com) homogenizer. Samples were centrifuged for 15 min at 18400 rcf and the supernatant was lyophilized and resuspended in MILLI-Q water. The dispersal activity of nematodes was tested using the dispersal assay described herein above and a physiologically relevant concentration of insect host cadaver extract or fractionated extract. To facilitate calculations for physiologically relevant concentration of the ascarosides, wax worm volume was estimated at 200 μl; the average weight of wax worms was 232 (+/−57 mg; n=19).
The first reverse-phase solid-phase extraction was performed using Sep-Pak Plus C18 cartridges (Waters corporation, Milford, Mass.). The initially collected flow through was termed Fraction A. Thereafter, the column was washed with water, collected and saved. Subsequently, the column was eluted with 50% (Fraction B) and 90% MeOH (Fraction C). The fractions were tested for dispersal activity both individually and in combination. Also individual fractions were analyzed by LC-MS. Fraction A contained ascr#9, which was collected by LC-MS and tested for activity with Fraction B+C.
A total of 33 insect host cadavers ([…] larvae) were placed into 70% EtOH and were homogenized using 1 g of ceramic zirconium beads (1.25 mm) (ZIRMIL) in 2 ml tubes for 37 sec using a Precellys24 (http://www.precellys.com) homogenizer. Samples were centrifuged for 15 min at 18400 rcf and the supernatant was lyophilized and resuspended in MILLI-Q water. The dispersal activity of nematodes was tested using the dispersal assay described herein above. The extracts were resuspended in water as 10 times concentrated. The average weight of insect host is estimated 200 microL and therefore the dry cadavers extract from 1 insect equivalent was diluted in 20 microL of water. One microL of the concentrated extracts was added to the 10 ul of IJ water suspension.

Row | SMILES | dispersal activity in combination with fractions B and C (listed as natural ascr#9) | dispersal activity in combination with fractions B and C (listed as synthetic ascr#9) | dispersal activity by itself | dispersal activity in combination with fractions B and C
1 | C[C@H](CCC(=O)O)O[C@@H]1O[C@@H](C)[C@H](O)C[C@H]1O [ascr#9] | active | confirms the active component | not active by themselves | –
2 | C[C@H](CC(=O)O)O[C@@H]1O[C@@H](C)[C@H](O)C[C@H]1O [ascr#11] | – | – | not active by themselves | sufficient to cause dispersal; also recorded: active with the other two fractions
